Results from patent US20240308995A1, “O-GLYCOPROTEIN-2-ACETAMIDO-2-DEOXY-3-D-GLUCOPYRANOSIDASE INHIBITORS” (BIOGEN MA INC., priority 2018, published 2024).
pIC50: −log10 of the molar value. Where two headings read alike, the source gives them in different places.

How the values were obtained:
[1] = Rat Liver Microsome Stability Assay; assay type: in vitro ADME; conditions: rat liver microsomes, 1 uM compound
[2] = target: Recombinant full length human OGA enzyme (Homo sapiens (Human), UniProt O60502); test: OGA Enzyme Inhibition Biochemical Assay; conditions: 1 nM OGA, 100 μM 4-MUGlcNAc, pH 6.4
Outline: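 Full-length recombinant human OGA with fluorogenic 4-MUGlcNAc in McIlvaine buffer pH 6.4, 0.01% BSA; 90 min at room temperature, glycine pH 10 quench, fluorescence Ex 355/Em 460 nm. 10-point, 4-fold dilution from 20 μM; 4-parameter variable-slope fit.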

P-gp (MDR1) = test: MDR1-MDCK Efflux Ratio Assay; assay type: in vitro ADME; conditions: dog, read-out: MDR1-MDCK Efflux Ratio (B-A/A-B)
Outline: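 Bidirectional (apical↔basolateral) transport across confluent MDR1-MDCK monolayers in HBSS/10 mM HEPES pH 7.4, receiver buffer with 1% BSA; 2 hr at 37° C, 5% CO2. Donor sampled at 0 and 120 min, receiver at 120 min, quantified by LC-MS/MS in triplicate. Papp, efflux ratio and percent recovery calculated.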

[3] = target: OGA (S400 O-GLCNAC), HEK-293T cells transfected with Tau-V5 (Homo sapiens (Human), UniProt O60502); test: Cellular OGA-Tau MSD Assay; assay type: cell-based; conditions: HEK-293T cells, Tau-S400-GlcNAc MSD readout
Outline: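 HEK-293T cells transfected with OGA and Tau-V5 plasmids were treated overnight at 37° C with a 10-point, 3-fold titration from 1 uM. Lysates went onto V5-antibody MSD plates to capture Tau, probed with a Tau O-GlcNAc antibody and read by electrochemiluminescence; IC50 from a 4-parameter fit.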

[4] = MDCK-MDR1, pH 7.4, MDR1-MDCK cells, 2 hr, pH 7.4

Recombinant full length human OGA enzyme, sequence (O60502 whole entry): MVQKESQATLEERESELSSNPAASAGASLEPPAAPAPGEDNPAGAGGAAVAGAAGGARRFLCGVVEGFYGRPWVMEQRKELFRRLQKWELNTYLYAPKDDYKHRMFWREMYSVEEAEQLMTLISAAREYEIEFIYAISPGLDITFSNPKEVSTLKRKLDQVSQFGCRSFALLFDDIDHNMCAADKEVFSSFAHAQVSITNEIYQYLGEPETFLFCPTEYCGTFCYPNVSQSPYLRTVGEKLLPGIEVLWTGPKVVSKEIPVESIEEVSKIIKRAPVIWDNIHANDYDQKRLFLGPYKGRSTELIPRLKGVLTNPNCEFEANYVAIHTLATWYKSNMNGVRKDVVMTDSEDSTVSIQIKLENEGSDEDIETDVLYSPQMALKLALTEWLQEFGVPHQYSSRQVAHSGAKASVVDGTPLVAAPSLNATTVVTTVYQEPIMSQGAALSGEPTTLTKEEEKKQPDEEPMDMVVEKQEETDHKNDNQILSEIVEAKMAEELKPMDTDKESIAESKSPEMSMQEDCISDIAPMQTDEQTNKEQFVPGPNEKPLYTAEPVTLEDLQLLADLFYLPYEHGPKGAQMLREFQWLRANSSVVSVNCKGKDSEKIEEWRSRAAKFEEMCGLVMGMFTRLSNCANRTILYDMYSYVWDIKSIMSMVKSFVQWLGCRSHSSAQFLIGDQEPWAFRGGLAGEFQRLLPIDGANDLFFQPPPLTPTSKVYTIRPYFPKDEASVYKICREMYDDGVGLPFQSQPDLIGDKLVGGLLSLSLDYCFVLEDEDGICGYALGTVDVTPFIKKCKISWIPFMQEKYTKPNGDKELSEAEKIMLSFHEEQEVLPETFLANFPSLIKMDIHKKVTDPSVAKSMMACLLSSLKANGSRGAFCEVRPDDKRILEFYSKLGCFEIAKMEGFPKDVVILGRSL
OGA (S400 O-GLCNAC), HEK-293T cells transfected with Tau-V5, sequence (O60502 whole entry): as above

SMILES	RLM % Qh (%) [1]	pIC50 [2]	efflux ratio at 2 h (P-gp (MDR1); [4])	pIC50 [3]	efflux ratio at 2 h (P-gp (MDR1); MDCK-MDR1, pH 7.4, repeated assay, value marked with asterisk (*))
CC(=O)Nc1nc(F)c(CN2C[C@H](Oc3cc(C)nc(C)c3)C[C@@H]2C)s1 [Example 1-50, N-(5-(((2S,4R)-4-((2,6-dimethylpyridin-4-yl)oxy)-2-methylpyrrolidin-1-yl)methyl)-4-fluorothiazol-2-yl)acetamide]	47%	> 9.00	22.4	9.00	
COc1nccc(O[C@@H]2C[C@H](C)N(Cc3sc(NC(C)=O)nc3F)C2)n1 [Example 1-92, N-(4-fluoro-5-(((2S,4R)-4-((2-methoxypyrimidin-4-yl)oxy)-2-methylpyrrolidin-1-yl)methyl)thiazol-2-yl)acetamide]	54%	> 9.00	10	9.00	
COc1cc(O[C@@H]2CCN(Cc3sc(NC(C)=O)nc3F)C2)ncn1 [Example 1-28, (R)—N-(4-fluoro-5-((3-((6-methoxypyrimidin-4-yl)oxy)pyrrolidin-1-yl)methyl)thiazol-2-yl)acetamide]	33%	7.80	1.8	7.33	
CCC(=O)Nc1nc(F)c(CN2CC[C@@H](Oc3cc(OC)ncn3)C2)s1 [Example 1-45, (R)—N-(4-fluoro-5-((3-((6-methoxypyrimidin-4-yl)oxy)pyrrolidin-1-yl)methyl)thiazol-2-yl)propionamide]	61%	7.33	1.7	6.02	
CC(=O)Nc1ncc(CN2CC[C@H](Oc3cc(C)nc(C)c3)C2)s1 [Example 1-58, (S)—N-(5-((3-((2,6-dimethylpyridin-4-yl)oxy)pyrrolidin-1-yl)methyl)thiazol-2-yl)acetamide]	16%	6.28	28.5	< 6.00	
CC(=O)Nc1nc(F)c(CN2CC[C@@H](Oc3cc(C)nc(C)c3)C2)s1 [Example 1-49, (R)—N-(5-((3-((2,6-dimethylpyridin-4-yl)oxy)pyrrolidin-1-yl)methyl)-4-fluorothiazol-2-yl)acetamide]	34%	> 9.00	18.9	8.00	
CC(=O)Nc1ncc(CN2C[C@H](Oc3ccc(F)nc3)C[C@@H]2C)s1 [Example 1-115, N-(5-(((2S,4R)-4-((6-fluoropyridin-3-yl)oxy)-2-methylpyrrolidin-1-yl)methyl)thiazol-2-yl)acetamide]	54%	> 9.00	4.7	8.70	
COc1cc(O[C@H]2CCCN(Cc3sc(NC(C)=O)nc3F)C2)ncn1 [Example 1-32, (S)—N-(4-fluoro-5-((3-((6-methoxypyrimidin-4-yl)oxy)piperidin-1-yl)methyl)thiazol-2-yl)acetamide]	83%	7.85	3.1	7.49	
CC(=O)Nc1ncc(CN2C[C@H](Oc3ccc(F)c(C)n3)C[C@@H]2C)s1 [Example 1-15, N-(5-(((2S,4R)-4-((5-fluoro-6-methylpyridin-2-yl)oxy)-2-methylpyrrolidin-1-yl)methyl)thiazol-2-yl)acetamide]	95%	> 9.00	2.2	8.70	
CC(=O)Nc1ncc(CN2C[C@@H](Oc3cc(C)nc(C)c3)C[C@H]2C)s1 [Example 1-63, N-(5-(((2R,4S)-4-((2,6-dimethylpyridin-4-yl)oxy)-2-methylpyrrolidin-1-yl)methyl)thiazol-2-yl)acetamide]	16%	6.38	45.3	< 6.00	
CC(=O)Nc1nc(F)c(CN2C[C@H](Oc3cncnc3)C[C@@H]2C)s1 [Example 1-119, N-(4-fluoro-5-(((2S,4R)-2-methyl-4-(pyrimidin-5-yloxy)pyrrolidin-1-yl)methyl)thiazol-2-yl)acetamide]	50%	8.89	6.3	7.72	
CC(=O)Nc1ncc(CN2C[C@H](Oc3cc(OC4COC4)ncn3)C[C@@H]2C)s1 [Example 1-124, N-(5-(((2S,4R)-2-methyl-4-((6-(oxetan-3-yloxy)pyrimidin-4-yl)oxy)pyrrolidin-1-yl)methyl)thiazol-2-yl)acetamide]	16%	> 9.00	11.2	8.52	
CC(=O)Nc1ncc(CN2C[C@H](Oc3cc(C)ncc3C)C[C@@H]2C)s1 [Example 1-72, N-(5-(((2S,4R)-4-((2,5-dimethylpyridin-4-yl)oxy)-2-methylpyrrolidin-1-yl)methyl)thiazol-2-yl)acetamide]	64%	8.14	55.1	8.10	
CC(=O)Nc1ncc(CN2CCC[C@@H](Oc3cc(C)nc(C)c3)C2)s1 [Example 1-65, (R)—N-(5-((3-((2,6-dimethylpyridin-4-yl)oxy)piperidin-1-yl)methyl)thiazol-2-yl)acetamide]	85%	8.68	17	7.74	
CC(=O)Nc1nc(F)c(CN2C[C@H](Oc3cc(O)ncn3)C[C@@H]2C)s1 [Example 1-109, N-(4-fluoro-5-(((2S,4R)-4-((6-hydroxypyrimidin-4-yl)oxy)-2-methylpyrrolidin-1-yl)methyl)thiazol-2-yl)acetamide]	16%	> 9.00	12.7	8.10	
CC(=O)Nc1ncc(CN2CC[C@@H](Oc3cc(C)nc(C)c3)C2)s1 [Example 1-59, (R)—N-(5-((3-((2,6-dimethylpyridin-4-yl)oxy)pyrrolidin-1-yl)methyl)thiazol-2-yl)acetamide]	55%	8.72	22.2	8.10	
CC(=O)Nc1ncc(CN2C[C@H](Oc3cnc(Cl)cc3C)C[C@@H]2C)s1 [Example 1-17, N-(5-(((2S,4R)-4-((6-chloro-4-methylpyridin-3-yl)oxy)-2-methylpyrrolidin-1-yl)methyl)thiazol-2-yl)acetamide]	88%	> 9.00	12	8.70	12.4
CC(=O)Nc1ncc(CN2C[C@H](Oc3cc(OC4CCCC4)ncn3)C[C@@H]2C)s1 [Example 1-138, N-(5-(((2S,4R)-4-((6-(cyclopentyloxy)pyrimidin-4-yl)oxy)-2-methylpyrrolidin-1-yl)methyl)thiazol-2-yl)acetamide]	87%	> 9.00	2.6	7.55	
CC(=O)Nc1ncc(CN2C[C@H](Oc3ccccn3)C[C@@H]2C)s1 [Example 1-14, N-(5-(((2S,4R)-2-methyl-4-(pyridin-2-yloxy)pyrrolidin-1-yl)methyl)thiazol-2-yl)acetamide]	68%	8.89	2.9	8.30	
CC(=O)Nc1ncc(CN2C[C@H](Oc3ccc(F)cn3)C[C@H]2C)s1 [Example 1-10, N-(5-(((2R,4R)-4-((5-fluoropyridin-2-yl)oxy)-2-methylpyrrolidin-1-yl)methyl)thiazol-2-yl)acetamide]	76%	7.55	1.9	6.94	
CC(=O)Nc1nc(F)c(CN2C[C@H](Oc3ccnc(F)c3)C[C@@H]2C)s1 [Example 1-97, N-(4-fluoro-5-(((2S,4R)-4-((2-fluoropyridin-4-yl)oxy)-2-methylpyrrolidin-1-yl)methyl)thiazol-2-yl)acetamide]	52%	> 9.00	3.7	8.52	
CC(=O)Nc1nc(F)c(CN2C[C@H](Oc3ccc(F)cn3)C[C@@H]2C)s1 [Example 1-47, N-(4-fluoro-5-(((2S,4R)-4-((5-fluoropyridin-2-yl)oxy)-2-methylpyrrolidin-1-yl)methyl)thiazol-2-yl)acetamide]	76%	> 9.00	1.5	9.00	
CO[C@H]1C[C@H](Oc2cc(O[C@@H]3C[C@H](C)N(Cc4cnc(NC(C)=O)s4)C3)ncn2)C1 [Example 1-120, N-(5-(((2S,4R)-4-((6-((1r,3R)-3-methoxycyclobutoxy)pyrimidin-4-yl)oxy)-2-methylpyrrolidin-1-yl)methyl)thiazol-2-yl)acetamide]	64%	> 9.00	10.3	8.70	
CC(=O)Nc1ncc(CN2C[C@H](Oc3ncc(F)cn3)C[C@@H]2C)s1 [Example 1-86, N-(5-(((2S,4R)-4-((5-fluoropyrimidin-2-yl)oxy)-2-methylpyrrolidin-1-yl)methyl)thiazol-2-yl)acetamide]	26%	> 9.00	11.2	> 9.00	
